In ChEMBL document CHEMBL1201862, “PubChem BioAssay data set” (2004):
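Values below derive from 48-hour exposures of cells grown in 96-well plates, with endpoints linearly interpolated between the two concentrations bracketing the appropriate inhibition level. Abbreviation: GI50, concentration required for 50% inhibition of growth.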 Active and inactive are the calls of the source. Rule as the data show it: active = GI50 up to about 1.1 µM and inactive = higher.

Legend:
Experiment in all cases: NCI tumour cell line growth inhibition, 48 h
NCI/ADR-RES = test system: NCI/ADR-RES
EKVX = test system: EKVX
LOX IMVI = test system: LOX IMVI
SW-620 = test system: SW-620
HCT-15 = test system: HCT-15
MDA-MB-435 = test system: MDA-MB-435
OVCAR-5 = test system: OVCAR-5
PC-3 = test system: PC-3
DU-145 = test system: DU-145
COLO 205 = test system: COLO 205
SK-MEL-28 = test system: SK-MEL-28
SK-MEL-5 = test system: SK-MEL-5
HOP-62 = test system: HOP-62
RXF 393 = test system: RXF 393
BT-549 = test system: BT-549
SF-295 = test system: SF-295
SF-268 = test system: SF-268
OVCAR-8 = test system: OVCAR-8
NCI-H522 = test system: NCI-H522
HCC 2998 = test system: HCC 2998

Structure (SMILES): Cc1c2ccnc(C(=O)NCCN(C)C)c2cc2c3cc(O)ccc3n(C)c12
- GI50 (NCI/ADR-RES): 766 nM (active)
- GI50 (EKVX): 957 nM (active)
- GI50 (LOX IMVI): 110 nM (active)
- GI50 (SW-620): 93.1 nM (active)
- GI50 (HCT-15): 120 nM
- GI50 (MDA-MB-435): 282 nM (active)
- GI50 (OVCAR-5): 760 nM (active)
- GI50 (PC-3): 115 nM (active)
- GI50 (DU-145): 64.9 nM (active)
- GI50 (COLO 205): 268 nM (active)
- GI50 (SK-MEL-28): 328 nM (active)
- GI50 (SK-MEL-5): 149 nM (active)
- GI50 (HOP-62): 36.8 nM (active)
- GI50 (RXF 393): 290 nM (active)
- GI50 (BT-549): 2060 nM (inactive)
- GI50 (SF-295): 67.1 nM (active)
- GI50 (SF-268): 67.6 nM (active)
- GI50 (OVCAR-8): 100 nM (active)
- GI50 (NCI-H522): 236 nM (active)
- GI50 (HCC 2998): 573 nM (active)

Structure (SMILES): Cc1ccc(/N=C2\C(=O)C3=C(OC(C)(C)CC3)c3ccccc32)cc1
- GI50 (NCI/ADR-RES): 318 nM (active)
- GI50 (EKVX): 1810 nM (inactive)
- GI50 (LOX IMVI): 269 nM (active)
- GI50 (SW-620): 738 nM (active)
- GI50 (HCT-15): 415 nM
- GI50 (MDA-MB-435): 183 nM (active)
- GI50 (OVCAR-5): 1510 nM (inactive)
- GI50 (PC-3): 1220 nM (inactive)
- GI50 (DU-145): 1310 nM (inactive)
- GI50 (COLO 205): 1690 nM (inactive)
- GI50 (SK-MEL-28): 1210 nM (inactive)
- GI50 (SK-MEL-5): 951 nM (active)
- GI50 (HOP-62): 542 nM (active)
- GI50 (RXF 393): 1710 nM (inactive)
- GI50 (BT-549): 1330 nM (inactive)
- GI50 (SF-295): 1400 nM (inactive)
- GI50 (SF-268): 1530 nM (inactive)
- GI50 (OVCAR-8): 357 nM (active)
- GI50 (NCI-H522): 1250 nM (inactive)
- GI50 (HCC 2998): 1770 nM (inactive)
